Data reported in article PMC3553074 (PLoS ONE, 2013).
In brackets after ≈: the same amount, converted by molar mass. Where a name gives a salt, the structure may show the parent alone. Read-outs that look alike come from different tables or passages of the source.

Assays:
Ft-MglA [1] = target: T1, Ft-MglA (Francisella tularensis, UniProt Q5NFG1); assay: biochemical
E. coli = assay: microbe, parasite or virus in culture; details: Escherichia coli, read-out: E. coli MIC (mM)
Ec-SspA [2] = target: T2, Ec-SspA (Escherichia coli, UniProt P0ACA3); assay: biochemical; parameters: differential scanning fluorometry with SYPRO Orange, shift of midpoint transition temperature of purified protein
T2 construct: His-tagged from pCA24N-sspA (ASKA library clone), expressed in E. coli
T2 sequence (P0ACA3 2-212): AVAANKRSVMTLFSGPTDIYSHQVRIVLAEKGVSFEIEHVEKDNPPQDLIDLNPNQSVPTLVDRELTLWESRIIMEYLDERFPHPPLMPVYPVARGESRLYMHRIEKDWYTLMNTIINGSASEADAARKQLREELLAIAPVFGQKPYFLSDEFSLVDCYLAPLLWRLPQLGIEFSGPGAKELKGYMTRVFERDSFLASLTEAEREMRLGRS

Ec-SspA [3] = target: T2, Ec-SspA; assay: biochemical
Ft-MglA [4] = target: T1, Ft-MglA; assay: biochemical; details: read-out: ΔTm (°C) ^1
[5] = target: F. tularensis SCHU S4 SspA fused to the zinc finger DNA binding domain of murine Zif268 (pACTR-sspA-Zif) (F. tularensis SCHU S4); assay: two-hybrid
[6] = read-out: ΔTm (°C) ^1 / Ec-SspA
[7] = read-out: ΔTm (°C) ^1 / Ft-MglA

COc1ccc2cc(CCC(C)=O)ccc2c1 [Nabumetone]
ΔTm at 40 µM (Ft-MglA [1]; read-out: ΔTm (°C) ^1): 13.8 ± 0.1 °C | MIC (E. coli): 1 mM (≈ 228 µg/mL)

CCCOc1ccc(C(=O)OCCN(CC)CC)cc1N [Proparacaine hydrochloride]
ΔTm at 40 µM (Ec-SspA [2]; [6]): 27.9 ± 4.3 °C | ΔTm at 40 µM (Ft-MglA [1]; [7]): 24.5 ± 4.4 °C | MIC (E. coli): 0.5 mM

O=C(O)c1cc2ccccc2c(Cc2c(O)c(C(=O)O)cc3ccccc23)c1O [Pamoic acid]
MIC (E. coli): 0.25 mM (≈ 97.1 µg/mL)

C[C@H](CS)C(=O)N1CCC[C@H]1C(=O)O [Captopril]
ΔTm at 40 µM (Ec-SspA [2]; read-out: ΔTm (°C) ^1): 9.2 ± 1.9 °C | MIC (E. coli): 1 mM (≈ 217 µg/mL)

Cc1c(Cl)cccc1Nc1ccccc1C(=O)O [Tolfenamic acid]
ΔTm at 40 µM (Ec-SspA [2]; read-out: ΔTm (°C) ^1): 11.6 ± 2.7 °C | MIC (E. coli): 1 mM (≈ 262 µg/mL)

CCc1oc2ccccc2c1C(=O)c1cc(Br)c(O)c(Br)c1 [Benzbromarone]
ΔTm at 40 µM (Ec-SspA [3]; read-out: ΔTm (°C) ^1): 30 ± 1.6 °C | MIC (E. coli): 1 mM (≈ 424 µg/mL)

C[C@H]1[C@H](C)CC[C@]2(C(=O)O)CC[C@]3(C)C(=CC[C@@H]4[C@@]5(C)CC[C@H](O)C(C)(C)[C@@H]5CC[C@]43C)[C@H]12 [Ursolic acid]
ΔTm at 40 µM (Ft-MglA [1]; read-out: ΔTm (°C) ^1): 16.3 ± 3.2 °C | MIC (E. coli): 1 mM (≈ 457 µg/mL)

O=C(CCCN1CCC(O)(c2ccc(Cl)cc2)CC1)c1ccc(F)cc1 [Haloperidol]
MIC (E. coli): 0.1 mM (≈ 37.6 µg/mL)

CC1=C(/C=C/C(C)=C/C=C/C(C)=C/C(=O)O)C(C)(C)CCC1 [Retinoic acid]
ΔTm at 40 µM (Ft-MglA [1]; [7]): 24.5 ± 3.9 °C | ΔTm at 40 µM (Ec-SspA [3]; [6]): 23.3 ± 3.2 °C | MIC (E. coli): 0.5 mM (≈ 150 µg/mL)

Cc1ccc(Cl)c(Nc2ccccc2C(=O)O)c1Cl [Meclofenamic acid]
ΔTm at 40 µM (Ec-SspA [3]; read-out: ΔTm (°C) ^1): 22.9 ± 4.1 °C | MIC (E. coli): 1 mM (≈ 296 µg/mL)

Cc1c(N(C)CS(=O)(=O)O)c(=O)n(-c2ccccc2)n1C [Dipyrone]
ΔTm at 40 µM (Ec-SspA [2]; read-out: ΔTm (°C) ^1): 8.9 ± 1.5 °C | MIC (E. coli): 1 mM (≈ 311 µg/mL)

Cn1c(=O)c2nc[nH]c2n(C)c1=O [Theophylline monohydrate]
ΔTm at 40 µM (Ft-MglA [4]): 2.3 ± 0.1 °C | MIC (E. coli): 0.1 mM

COC(=O)C1=CCCN(C)C1 [Arecoline hydrobromide]
ΔTm at 40 µM (Ft-MglA [4]): 2.8 ± 0.1 °C | MIC (E. coli): 0.1 mM

CCN(CC)CCCC(C)Nc1c2ccc(Cl)cc2nc2ccc(OC)cc12 (centres unmarked) [quinacrine]
ΔTm at 40 µM (Ec-SspA [2]; [6]): 15.2 ± 1.7 °C | ΔTm at 40 µM (Ft-MglA [1]; [7]): 2.1 ± 0.9 °C | MIC (E. coli): 0.2 mM (≈ 80 µg/mL)

F. tularensis SCHU S4 MglA fused to the ω subunit of E. coli RNA polymerase (pBR-mglA-ω) (natural protein)
decrease of β-galactosidase activity (%) with arecoline hydrobromide [5]: 7.8% | decrease of β-galactosidase activity (%) with benzbromarone [5]: 5.8% | decrease of β-galactosidase activity (%) with benzethonium chloride [5]: 18.9% | decrease of β-galactosidase activity (%) with captopril [5]: 16.2% | decrease of β-galactosidase activity (%) with diethylcarbamazine citrate [5]: 19.3% | decrease of β-galactosidase activity (%) with dipyrone [5]: 10.3% | decrease of β-galactosidase activity (%) with flumequine [5]: 12% | decrease of β-galactosidase activity (%) with haloperidol [5]: 18% | decrease of β-galactosidase activity (%) with meclofenamic acid [5]: 13.2% | decrease of β-galactosidase activity (%) with nabumetone [5]: 17.1% | decrease of β-galactosidase activity (%) with pamoic acid [5]: 15.5% | decrease of β-galactosidase activity (%) with proparacaine hydrochloride [5]: 9.8% | decrease of β-galactosidase activity (%) with quinacrine dihydrochloride [5]: 61% | decrease of β-galactosidase activity (%) with retinoic acid [5]: 31% | decrease of β-galactosidase activity (%) with theophylline monohydrate [5]: 6.5% | decrease of β-galactosidase activity (%) with tolfenamic acid [5]: 7.7% | decrease of β-galactosidase activity (%) with ursolic acid [5]: 16.5%

CCN(CC)C(=O)N1CCN(C)CC1 [Diethylcarbamazine citrate]
ΔTm at 40 µM (Ft-MglA [4]): 2.1 ± 0.1 °C | MIC (E. coli): 1 mM

CC1CCc2cc(F)cc3c(=O)c(C(=O)O)cn1c23 (centres unmarked) [Flumequine]
ΔTm at 40 µM (Ft-MglA [1]; read-out: ΔTm (°C) ^1): 17.9 ± 2.4 °C | MIC (E. coli): 0.1 mM (≈ 26.1 µg/mL)
